Values quoted from earlier work as cited in US9498464B2, “Treatment of arterial wall by combination of RAAS inhibitor and HMG-CoA reductase inhibitor” (ARTSKIN d.o.o., priority 2011, dated 2016).

Test system: arterial stiffness
Conditions: 12 weeks, 80 mg then 160 mg/day, patients with type 2 diabetes and hypertension

Compound: CCCCC(=O)N(Cc1ccc(-c2ccccc2-c2nnn[nH]2)cc1)[C@H](C(=O)O)C(C)C [valsartan]
- arterial stiffness (pulse wave analysis): improves arterial stiffness
